Experimental data reported in PubChem BioAssay (NCI).
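GI50 = concentration required for 50% inhibition of growth. TGI: concentration producing complete growth inhibition.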

Experiments:
Experiment in all cases: inhibition of tumour cell growth, NCI panel, 384-well format
[1] = test system: 786-0 renal
[2] = test system: A549 NSCLC
[3] = test system: ACHN renal
[4] = test system: BT-549 breast
[5] = test system: CAKI-1 renal
[6] = test system: CCRF-CEM leukemia
[7] = test system: COLO 205 colon
[8] = test system: DU-145 prostate
[9] = test system: EKVX NSCLC
[10] = test system: HCC-2998 colon
[11] = test system: HCT-116 colon
[12] = test system: HCT-15 colon
[13] = test system: HL-60(TB) leukemia
[14] = test system: HOP-62 NSCLC
[15] = test system: HS 578T breast
[16] = test system: IGROV1 ovarian
[17] = test system: K-562 leukemia
[18] = test system: LOX IMVI melanoma
[19] = test system: MALME-3M melanoma
[20] = test system: MCF7 breast
[21] = test system: MDA-MB-231 breast
[22] = test system: MDA-MB-435 melanoma
[23] = test system: MDA-MB-468 breast
[24] = test system: MOLT-4 leukemia
[25] = test system: NCI-H226 lung
[26] = test system: NCI-H23 lung
[27] = test system: NCI-H322M lung
[28] = test system: NCI-H460 NSCLC
[29] = test system: NCI-H522 lung
[30] = test system: NCI/ADR-RES ovarian
[31] = test system: OVCAR-3 ovarian
[32] = test system: OVCAR-4 ovarian
[33] = test system: OVCAR-8 ovarian
[34] = test system: PC-3 prostate
[35] = test system: RPMI-8226 leukemia
[36] = test system: RXF 393 renal
[37] = test system: SF-268 CNS
[38] = test system: SF-295 CNS
[39] = test system: SF-539 CNS
[40] = test system: SK-MEL-28 melanoma
[41] = test system: SK-MEL-5 melanoma
[42] = test system: SK-OV-3 ovarian
[43] = test system: SN12C renal
[44] = test system: SR leukemia
[45] = test system: SW-620 colon
[46] = test system: T-47D breast
[47] = test system: TK-10 renal
[48] = test system: U251 glioblastoma
[49] = test system: UACC-257 melanoma
[50] = test system: UACC-62 melanoma
[51] = test system: UO-31 renal

With `COc1ccc(/C=C\c2cc(OC)c(OC)c(OC)c2)cc1NC(=O)[C@@H](N)CO` the GI50 [1] was < 10 nM, the TGI [1] was 58.2 nM and the GI50 [2] was < 10 nM. For the same compound, the TGI [2] was > 100000 nM, the GI50 [3] was < 10 nM and the TGI [3] was 52200 nM. The GI50 [4] was < 10 nM, the TGI [4] was 25.2 nM and the GI50 [5] was < 10 nM. The TGI [5] was > 100000 nM, the GI50 [6] was < 10 nM and the TGI [6] was < 10 nM. For the same compound, the GI50 [7] was < 10 nM, the TGI [7] was < 10 nM and the GI50 [8] was < 10 nM. For the same compound, the TGI [8] was 70.1 nM, the GI50 [9] was < 10 nM and the TGI [9] was > 100000 nM. The GI50 [10] was < 10 nM, the TGI [10] was 29.7 nM and the GI50 [11] was < 10 nM. The TGI [11] was 103 nM, the GI50 [12] was < 10 nM and the TGI [12] was 92.2 nM. The GI50 [13] was < 10 nM, the TGI [13] was < 10 nM and the GI50 [14] was < 10 nM. For the same compound, the TGI [14] was 196 nM, the GI50 [15] was < 10 nM and the TGI [15] was < 10 nM. The GI50 [16] was < 10 nM, the TGI [16] was 35900 nM and the GI50 [17] was < 10 nM. The TGI [17] was 12.3 nM, the GI50 [18] was 12.2 nM and the TGI [18] was 80.3 nM. The GI50 [19] was < 10 nM, the TGI [19] was > 100000 nM and the GI50 [20] was 24.4 nM. The TGI [20] was 12700 nM, the GI50 [21] was < 10 nM and the TGI [21] was > 100000 nM. The GI50 [22] was < 10 nM, the TGI [22] was < 10 nM and the GI50 [23] was 13.3 nM. The TGI [23] was 29.7 nM, the GI50 [24] was < 10 nM and the TGI [24] was < 10 nM. For the same compound, the GI50 [25] was < 10 nM, the TGI [25] was 25.3 nM and the GI50 [26] was < 10 nM. The TGI [26] was 16.3 nM, the GI50 [27] was < 10 nM and the TGI [27] was > 100000 nM. For the same compound, the GI50 [28] was 17.3 nM, the TGI [28] was 36 nM and the GI50 [29] was < 10 nM. The TGI [29] was < 10 nM, the GI50 [30] was < 10 nM and the TGI [30] was < 10 nM. For the same compound, the GI50 [31] was < 10 nM, the TGI [31] was 20.7 nM and the GI50 [32] was 13.7 nM. The TGI [32] was > 100000 nM, the GI50 [33] was 10.4 nM and the TGI [33] was 35.9 nM. The GI50 [34] was < 10 nM, the TGI [34] was > 100000 nM and the GI50 [35] was < 10 nM. The TGI [35] was < 10 nM, the GI50 [36] was < 10 nM and the TGI [36] was < 10 nM. For the same compound, the GI50 [37] was < 10 nM, the TGI [37] was 78.5 nM and the GI50 [38] was < 10 nM. For the same compound, the TGI [38] was < 10 nM, the GI50 [39] was < 10 nM and the TGI [39] was 27.7 nM. For the same compound, the GI50 [40] was < 10 nM, the TGI [40] was > 100000 nM and the GI50 [41] was < 10 nM. For the same compound, the TGI [41] was < 10 nM, the GI50 [42] was < 10 nM and the TGI [42] was 12000 nM. The GI50 [43] was < 10 nM, the TGI [43] was 11900 nM and the GI50 [44] was < 10 nM. The TGI [44] was < 10 nM, the GI50 [45] was < 10 nM and the TGI [45] was > 100000 nM. The GI50 [46] was < 10 nM, the TGI [46] was 68600 nM and the GI50 [47] was < 10 nM. The TGI [47] was > 100000 nM, the GI50 [48] was < 10 nM and the TGI [48] was 17900 nM. For the same compound, the GI50 [49] was < 10 nM, the TGI [49] was > 100000 nM and the GI50 [50] was < 10 nM. The TGI [50] was > 100000 nM, the GI50 [51] was < 10 nM and the TGI [51] was > 100000 nM.
